Results reported in PMC11642016 (International Journal of Molecular Sciences, 2024).
Where “and” joins values, the source holds several entries; their conditions need not be identical. Identical values can stand only once. Like-named read-outs stand apart in the source and are kept apart here.

Key:
[1] = system: PANC-1, Fadu, A2058 and EBC-1 cell lines; parameters: method as in PMID 35455465; conditions: 10 µM; cited from earlier work
PANC-1 and A2058 cells = system: PANC-1 and A2058 cells; parameters: method as in PMID 35455465; conditions: 24 h exposure time; cited from earlier work
PANC-1 cells = assay: CellTiter-Glo luminescent cell viability assay, PANC-1; conditions: for PANC-1 Cell viability (% of controll) / Cell Viability (% of Control) 2.8 µM / Cell Viability (% of Control) 8.3 µM / Cell Viability (% of Control) 25 µM: 72 h; for PANC-1 Cell viability (% of controll): dose–response, individual replicates; for Cell Viability (% of Control) 2.8 µM / Cell Viability (% of Control) 8.3 µM / Cell Viability (% of Control) 25 µM: PANC-1, mean ± SD, n = 2
[2] = system: non-tumorous primary fibroblast cells; assay: CellTiter-Glo luminescent cell viability assay, primary fibroblasts; conditions: for Primer fibroblast Cell viability (% of controll): 72 h, dose–response, individual replicates
Fadu cells = assay: CellTiter-Glo luminescent cell viability assay, Fadu; conditions: for Fadu Cell viability (% of controll) / Cell Viability (% of Control) 2.8 µM / Cell Viability (% of Control) 8.3 µM / Cell Viability (% of Control) 25 µM: 72 h; for Fadu Cell viability (% of controll): dose–response, individual replicates; for Cell Viability (% of Control) 2.8 µM / Cell Viability (% of Control) 8.3 µM / Cell Viability (% of Control) 25 µM: Fadu, mean ± SD, n = 2

IC50 (PANC-1 cells; read-out: IC50 Value ± SEM PANC-1, 72 h treatment, best-fit values, n = 3): 10.7 ± 0.31 µM
IC50 (PANC-1 cells; read-out: PANC-1 IC50 values, Mean, mean of independently fitted replicate IC50 values (Supplement S.6)): 10.6 µM
IC50 (PANC-1 cells; read-out: PANC-1 IC50 values, individual replicates n1-n3, IC50 independently determined for each replicate measurement (Supplement S.6)): 11.5 µM and 10.3 µM and 10.1 µM
Compound: NCC#Cc1ccc(CN2C(=O)C3=C(CCN(Cc4ccc(-n5cc(-[c-]6cccc6)nn5)cc4)C3)N3CCN=C23)cc1.[Fe+2].c1cc[cH-]c1 [I/A, reference compound]
viable cells after treatment in colony formation assays [1]: no viable cells could be observed
apoptosis induction (PANC-1 and A2058 cells): far more efficient in apoptosis induction than ONC201
PANC-1 Cell viability (% of controll) (PANC-1 cells; 0.7 μM): 106 % of controll and 102 % of controll and 107 % of controll
PANC-1 Cell viability (% of controll) (PANC-1 cells; 1 μM): 109 % of controll and 116 % of controll and 115 % of controll
PANC-1 Cell viability (% of controll) (PANC-1 cells; 1.5 μM): 110 % of controll and 105 % of controll and 115 % of controll
PANC-1 Cell viability (% of controll) (PANC-1 cells; 2.3 μM): 109 % of controll and 107 % of controll and 111 % of controll
PANC-1 Cell viability (% of controll) (PANC-1 cells; 3.4 μM): 108 % of controll and 109 % of controll and 112 % of controll
PANC-1 Cell viability (% of controll) (PANC-1 cells; 5.1 μM): 99 % of controll and 97 % of controll and 119 % of controll
PANC-1 Cell viability (% of controll) (PANC-1 cells; 7.7 μM): 93 % of controll and 79 % of controll and 109 % of controll
PANC-1 Cell viability (% of controll) (PANC-1 cells; 17.3 μM): 0 % of controll and 2 % of controll and 1 % of controll
PANC-1 Cell viability (% of controll) (PANC-1 cells; 26 μM): 0 % of controll
Cell Viability (% of Control) 2.8 µM (PANC-1 cells; first-set screening): 108 ± 4 % of Control
Cell Viability (% of Control) 2.8 µM (PANC-1 cells; second-set screening): 108 ± 4 % of Control
Cell Viability (% of Control) 8.3 µM (PANC-1 cells; first-set screening): 39 ± 7 % of Control
Cell Viability (% of Control) 8.3 µM (PANC-1 cells; second-set screening): 39 ± 7 % of Control
Cell Viability (% of Control) 25 µM (PANC-1 cells; first-set screening): 0 ± 0 % of Control
Cell Viability (% of Control) 25 µM (PANC-1 cells; second-set screening): 0 ± 0 % of Control
Selectivity Index (SI) Fibroblast/PANC-1 (PANC-1 cells; ratio of mean best-fit IC50 for primary fibroblasts and best-fit IC50 for PANC-1): 1.4
Primer fibroblast Cell viability (% of controll) ([2]; 0.7 μM): 96 % of controll and 98 % of controll and 99 % of controll
Primer fibroblast Cell viability (% of controll) ([2]; 1 μM): 100 % of controll and 103 % of controll and 99 % of controll
Primer fibroblast Cell viability (% of controll) ([2]; 1.5 μM): 102 % of controll and 105 % of controll and 104 % of controll
Primer fibroblast Cell viability (% of controll) ([2]; 2.3 μM): 102 % of controll (2×) and 104 % of controll
Primer fibroblast Cell viability (% of controll) ([2]; 3.4 μM): 104 % of controll (2×) and 107 % of controll
Primer fibroblast Cell viability (% of controll) ([2]; 5.1 μM): 107 % of controll and 109 % of controll and 98 % of controll
Primer fibroblast Cell viability (% of controll) ([2]; 7.7 μM): 115 % of controll and 118 % of controll and 109 % of controll
Primer fibroblast Cell viability (% of controll) ([2]; 17.3 μM): 8 % of controll and 42 % of controll and 24 % of controll
Primer fibroblast Cell viability (% of controll) ([2]; 26 μM): 0 % of controll
IC50 ([2]; read-out: IC50 Value ± SEM Primary Fibroblast, 72 h treatment, best-fit values, n = 3): 14.9 ± 0.46 µM
IC50 ([2]; read-out: Primary fibroblast IC50 values, Mean, mean of independently fitted replicate IC50 values (Supplement S.6), ONC201 value mathematically estimated from inflection point): 15.2 µM
IC50 ([2]; read-out: Primary fibroblast IC50 values, individual replicates n1-n3, IC50 independently determined for each replicate (Supplement S.6), ONC201 value mathematically estimated from inflection point, viability stayed above 50%): 13.9 µM and 14.9 µM and 16.8 µM
Fadu Cell viability (% of controll) (Fadu cells; 0.7 μM): 111 % of controll and 115 % of controll and 108 % of controll
Fadu Cell viability (% of controll) (Fadu cells; 1 μM): 110 % of controll and 112 % of controll and 109 % of controll
Fadu Cell viability (% of controll) (Fadu cells; 1.5 μM): 107 % of controll and 108 % of controll and 109 % of controll
Fadu Cell viability (% of controll) (Fadu cells; 2.3 μM): 109 % of controll (2×) and 104 % of controll
Fadu Cell viability (% of controll) (Fadu cells; 3.4 μM): 104 % of controll and 109 % of controll and 110 % of controll
Fadu Cell viability (% of controll) (Fadu cells; 5.1 μM): 105 % of controll and 106 % of controll and 102 % of controll
Fadu Cell viability (% of controll) (Fadu cells; 7.7 μM): 99 % of controll and 86 % of controll and 82 % of controll
Fadu Cell viability (% of controll) (Fadu cells; 17.3 μM): 5 % of controll and 0 % of controll and 1 % of controll
Fadu Cell viability (% of controll) (Fadu cells; 26 μM): 0 % of controll
Cell Viability (% of Control) 2.8 µM (Fadu cells; first-set screening): 105 ± 9 % of Control
Cell Viability (% of Control) 2.8 µM (Fadu cells; second-set screening): 105 ± 9 % of Control
Cell Viability (% of Control) 8.3 µM (Fadu cells; first-set screening): 66 ± 24 % of Control
Cell Viability (% of Control) 8.3 µM (Fadu cells; second-set screening): 66 ± 24 % of Control
Cell Viability (% of Control) 25 µM (Fadu cells; first-set screening): 0 ± 0 % of Control
Cell Viability (% of Control) 25 µM (Fadu cells; second-set screening): 0 ± 0 % of Control
Selectivity Index (SI) Fibroblast/Fadu (Fadu cells; ratio of mean best-fit IC50 for primary fibroblasts and best-fit IC50 for Fadu): 1.5
IC50 (Fadu cells; read-out: Fadu IC50 values, Mean, mean of independently fitted replicate IC50 values (Supplement S.6)): 10 µM
IC50 (Fadu cells; read-out: Fadu IC50 values, individual replicates n1-n3, IC50 independently determined for each replicate measurement (Supplement S.6)): 11.2 µM and 9.27 µM and 9.61 µM
IC50 (Fadu cells; read-out: IC50 Value ± SEM Fadu, 72 h treatment, best-fit values, n = 3): 10 ± 0.23 µM
